This is an account of results in a melting point compilation (Tetko et al.; mined from patent text by program, amines drawn as free bases though some values may be those of a salt).

The melting point is the temperature of the solid-liquid transition.

`CCOC(=O)c1cnc2onc(C)c2c1N(C)S(=O)(=O)c1ccc(Oc2ccncc2)cc1` gave a melting point of 155 to 157 °C.
`COC(=O)CC1c2cc(N(C)C)ccc2N(C(C)=O)C1C` (stereo unspecified) gave a melting point of 122 °C.
`CN(C(=O)CN(C(=O)CNC(=O)OC(C)(C)C)c1ccccc1OCc1ccccc1)c1ccccc1` showed a melting point of 168 to 170 °C.
Next, `CC(C)C(=Nc1ccc([N+](=O)[O-])c(C(F)(F)F)c1)N(C)c1ccccc1`: 52.5 to 54 °C; `Nc1nc2c(ncn2OCCCP(=O)(O)O)c(=O)[nH]1`: over 300 °C.
As to `CCOc1ccc(C2=NN(Cc3ccc(C(=O)O)cc3)C(=O)[C@H]3CCCC[C@@H]23)cc1OCC` (relative stereo), the melting point lay in the range of 152 to 154 °C.
Next, `CN(C(CCn1c(=O)cc(C(F)(F)F)[nH]c1=O)C(=O)NO)S(=O)(=O)c1ccc(Oc2ccncc2)cc1` (stereo unspecified): 116 to 118 °C; `N#CCN(CC#N)CCN(CC#N)CC#N`: 131 to 132 °C.
The figure for `CC(CSC(=O)C(C)(C)C)C(=O)N1C(C(=O)O)CC2CCCCC21` (stereo unspecified) is 134 to 136 °C; for `COc1cc(CN2CCN(C(=S)C3(C)CCc4c(C)c(O)c(C)c(C)c4O3)CC2)cc(OC)c1OC` (stereo unspecified) it is 82 °C.
`CC(=O)Oc1ccccc1C(=O)Oc1ccc(CO[N+](=O)[O-])cc1` came in with a melting point of 86 to 88 °C.
For `CCCCCCc1ccc(O)c(C(=O)Nc2ccc([N+](=O)[O-])cc2)c1`, the melting point lay within 154 to 155 °C.
With `Cn1c(C(F)(F)F)cc(=O)n(-c2ccc3snc(C4(O)N=C(c5ccccc5)NC4=O)c3c2)c1=O` (stereo unspecified), the melting point is 139 to 141 °C.
The molecule `CCC(CC)(C(N)=O)c1ccc(Cl)cc1` had a melting point of 107 to 109 °C.
For `Cc1ccc(S(=O)(=O)OC2CC(=O)N(Cc3ccccc3)C2)cc1` (stereo unspecified), the melting point was in the range of 83 to 84 °C.
As for `Cc1ccccc1OCc1ccccc1[N+](=O)[O-]`, the melting point was 83 °C.
The molecule `Nc1ccc2c(c1)C(=O)N(c1ccc(C(=O)O)cc1)C2=O` came in with a melting point of 270 to 271 °C.
The molecule `N#CN=C1CCCCN1C1=CC(CF)(CF)Oc2ccc(C(F)(F)C(F)(F)F)cc21` displayed a melting point of 196 to 197 °C.
Next, `CCC(C)(C)c1cc(-n2nc3ccccc3n2)c(O)c(C(C)(C)CC)c1`: 77 to 79 °C.
The molecule `Cc1csc2nc(C(=O)NCc3cccc(CNC(=O)c4nc[nH]n4)c3)[nH]c(=O)c12` came in with a melting point of 290 to 291 °C.
In turn, `NC(=NCC(F)(F)F)Nc1ccnc(CCCCNC(=S)NCC(F)(F)F)n1` gave a melting point of 142 to 145 °C.
Take `CCCCCCCCCCC[C@H](CC(=O)N[C@@H](CO)C(=O)OCc1ccccc1)OC(=O)CCCCCCCC`: the melting point is 52 to 53 °C.
In turn, `CCn1c(C)c(C2(c3ccc(N(C)C)cc3N(C)C)OC(=O)c3ccccc32)c2ccccc21` (stereo unspecified) returned a melting point of 218 to 222 °C.
The figure for `CCN(CC)c1ccc(S(=O)(=O)CCCCC(=O)O)cc1` is 106 to 108 °C; for `COc1cc(C)c(C(=O)c2c(Cl)cccc2Cl)c(OC(=O)Cc2ccccc2)c1OC` it is 106 °C; for `O=C(NCc1ccccc1)c1ccnc(N2CCC(c3ccccc3)CC2=O)c1` (stereo unspecified) it is 55 to 60 °C.
The molecule `CC(=NO)c1ncc(C)nc1C` came in with a melting point of 85 to 89 °C.
For `O=C(NCc1ccc(Cl)cc1)c1cn(CCO)c2sc(CCCO)cc2c1=O`, the melting point lay within 174 to 178 °C.
Molecule `CC(=O)c1ccc(NC(=O)c2ccc(C=O)cc2)cc1` returned a melting point of 174 °C.
`COc1ccc2cnc(Nc3ccc(N4CCNCC4)cn3)nc2c1C1CCCC1` yielded a melting point of over 200 °C.
`N#CC(c1ccc(Cl)cc1)N(Cc1ccccc1)C(=O)C(F)(F)F` (stereo unspecified) returned a melting point of 131 to 132 °C.
Turning to `CCOC(=O)Cc1ccc(NC(=O)C(COc2ccc(Cl)cc2)NS(=O)(=O)c2ccc(F)cc2)cc1` (racemic), the melting point was in the range of 132 to 134 °C.
Regarding `CN1C(C(=O)OCCO)=C(O)c2ccccc2S1(=O)=O`, the melting point lay within 122 to 123 °C.
`N#CC(=Cc1ccc(O)c(O)c1)C(=O)NCCCNC(=O)C(C#N)=Cc1ccc(O)c(O)c1` displayed a melting point of 274 °C.
With `CCOC(=O)c1cc2c(O)nncc2nc1NC(C)C`, the melting point lay in the range of 219 to 220 °C.
On to `CON=C(C)CCc1nc2c(N)nc3ccccc3c2n1CC(C)(C)O`, for which the melting point fell in the range of 182 to 184 °C.
`CC(C)Oc1nsc(N)c1C#N` showed a melting point of 146 to 148 °C.
Molecule `CCCCc1oc2ccccc2c1C(=O)Nc1ccc2c(Br)c(O)ccc2c1` had a melting point of 195 to 197 °C.
Next, `CCOc1c(C(=O)c2ccccc2)cnc2[nH]ncc12`: 195 to 197 °C.
For the molecule `CCOC(=O)c1c(C)nc(N2CCN(C)CC2)c([N+](=O)[O-])c1N`, the melting point lay within 73 to 75 °C.
Regarding `CC1(C)OC(c2ccc(S(C)(=O)=O)cc2)=C(c2ccc(O)cc2)C1=O`, the melting point lay in the range of 150 to 152 °C.
Next, `CCCCCC1CCC(c2ccc(CC(=O)OC)cc2)CC1` (stereo unspecified): 46 to 47 °C.
The figure for `CC(=O)n1ccc2cc(C(=O)NC(C)(C)C)ccc21` is 187 °C.
Turning to `CCc1cc(C(=O)c2ccccc2Cl)c(-n2c(C)nnc2CNC(=O)c2cc3ccccc3n2CC(=O)O)s1`, the melting point was 208 to 210 °C.
With `N#Cc1cc(F)c(F)cc1N`, the melting point was 114 °C.
Molecule `CC(=O)c1ccc2c(c1)CCN(Cc1ccccc1)CC2` displayed a melting point of 89 to 91 °C.
`O=C(O)c1cc(-c2ccc(Cl)cc2)nc(-c2ccc(Oc3ccc(F)cc3)cc2)c1` yielded a melting point of 201 to 202 °C.
`C#CCc1c(C)cc(=O)n(O)c1-c1ccccc1` gave a melting point of 200 °C.
The molecule `CNC(=O)C(C)Nc1nc(-c2ccc(F)c3ccccc23)cc(C(C)C)n1` (stereo unspecified) displayed a melting point of 141 to 142 °C.
The figure for `CN1CCc2nc3ccc(Cl)cc3c(Cl)c2C1` is 88 to 89 °C.
With `COc1ccc(C2=NNS(=O)(=O)Cc3cc4nsnc4cc32)cc1`, the melting point was 225 to 227 °C.
As for `CC(C)(C)OC(=O)N1CCN(Cc2nc(-c3cc(C(C)(C)C)c(O)c(C(C)(C)C)c3)cs2)CC1`, the melting point lay within 108 to 109 °C.
The figure for `N#CCNC(=O)c1ccc(Cl)c(Cl)c1` is 144 to 145 °C.
For the molecule `O=[N+]([O-])c1cccc(Oc2ccc(Oc3cccc([N+](=O)[O-])c3)cc2)c1`, the melting point lay in the range of 158 to 160 °C.
In the case of `CCCCCCC(O)c1ccc2cc(OC)ccc2c1` (stereo unspecified), the melting point is 71 to 74 °C.
Next, `O=c1c(C2=CS(=O)(=O)c3cc(NS(=O)(=O)C4CC4)ccc3N2)c(O)c2cc(F)ccc2n1CCC1CC1`: 145 to 155 °C; `CCOC(=O)N1CC[C@@H](N2C(=O)c3ccccc3C2=O)[C@H](O)C1` (relative stereo): 128 °C; `CCc1cc(/C=C/[N+](=O)[O-])ccc1N=C1SCC2(CCCC2)N1C1CCCC1`: 141 to 142 °C.
Molecule `FC(F)(F)c1cccc(C2=CCN(CCc3ccc4[nH]ccc4c3)CC2)c1` registered a melting point of 122 to 123 °C.
On to `CCCCCCCCCCCCCCCNC(=O)OCCOCCOC(=O)NCc1ccccn1`, for which the melting point lay in the range of 86 to 87 °C.
Molecule `CCCc1nc(C)c2c(Sc3ccc(NC(C)=O)cc3)nc(-c3ccccc3OCC)nn12` displayed a melting point of 226 to 228 °C.
With `COc1ccccc1C(=O)Nc1ccc(Cl)c(C(=O)OC(C)C)c1`, the melting point was 94 to 96 °C.
Consider `S=C1CC(c2ccccc2)=Nc2ccccc2N1`, for which the melting point fell in the range of 228 to 230 °C.
The molecule `CCn1ncnc1COc1nn2c(-c3ccccc3F)nncc2c1-c1ccccc1F` showed a melting point of 164 °C.
`O=C(Nc1c([N+](=O)[O-])ccc2c3c(oc12)CCCC3)c1c(Cl)cccc1Cl` yielded a melting point of 246 to 248 °C.
As to `Nc1ccc(C2CCNC2)c(F)c1` (stereo unspecified), the melting point was in the range of 108 to 109 °C.
The figure for `COC(=O)c1ccc(C(O)c2cc3cc(C(F)(F)F)ccc3n2S(=O)(=O)c2ccc3c(c2)N(C)CCO3)cc1` (stereo unspecified) is 80 °C; for `CCOc1cccc2c1C(=NNc1ccc(S(N)(=O)=O)cc1)C(=O)N2` it is over 250 °C; for `CCOC(=O)/C=C/c1ccc(C#Cc2ccc3c(c2)C(C)(C)CCC3(C)C)cc1` it is 116 to 118 °C.
Next, `O=C1N(Cc2ccc(C(F)(F)F)o2)c2cccc(-c3cncnc3)c2C12COc1cc3c(cc12)CCO3` (stereo unspecified): 263 to 266 °C; `CC1(C)Oc2cc([N+](=O)[O-])c(N)cc2[C@@H](N2CCCC2=O)[C@@H]1O` (relative stereo): 244 to 245 °C; `CN(C)C=Nc1nc2c(nnn2C2CC(O)C(CO)O2)c(=O)[nH]1` (stereo unspecified): 236 °C.
Next, `C=Cc1cc(C)cc(C)c1C1=C(O)C2(CCN(OC)CC2)N(C)C1=O`: 158 to 161 °C; `CC(=O)c1ccc2c(c1)C(c1ccccc1F)=NC(C)C(=O)N2C` (stereo unspecified): 65 °C.
With `CC(C)Oc1ccc(CCCO)c(Oc2ncc(Cl)cc2Cl)c1`, the melting point was in the range of 57 to 59 °C.
Molecule `CCC1(CO)COCOC1` came in with a melting point of 95 to 102 °C.
For the molecule `CN(C)CCCOc1ccc(-c2nnc(CSCCOc3ccccc3)n2-c2ccccc2)cc1`, the melting point was in the range of 120 to 123 °C.
`COc1ccc(NC(=NC#N)NC(NC(=O)Cc2ccc(OC)c(OC)c2)C(C)(C)C)c(OC)n1` (stereo unspecified): the melting point fell in the range of 162 to 163 °C.
Molecule `O=c1[nH]c2cc(Cl)c(-n3cccc3)cc2cc1P(=O)(O)O` gave a melting point of 195 to 200 °C.
The figure for `Cc1ccccc1CC(=NC#N)NC(NC(=O)Cc1ccc2cccnc2c1)C(C)(C)C` (stereo unspecified) is 165 to 166 °C.
As to `CNC(=O)c1ccc(OCC(O)CNC(C)C)nc1` (stereo unspecified), the melting point is 118 to 120 °C.
The figure for `O=C1Nc2ccc(Cl)cc2C1(O)c1ccccc1OCc1ccccc1` (stereo unspecified) is 197 °C; for `COc1ccc(N2CCN(c3ccc(OC(F)(F)F)cc3)C(=O)C2)c(-c2ccc(N(C)C)cc2)n1` it is 116 to 120 °C.
In turn, `Fc1ccc(-c2ccc3[nH]c4c(ccc5cc[nH]c54)c3c2)c(F)c1` yielded a melting point of over 250 °C.
`COc1cc(CCC(=O)CC(=O)c2ccccc2)ccc1O` showed a melting point of 76 to 78 °C.
`COc1ccccc1CNc1ccc2c(C(=N)NO)cccc2n1`: the melting point is 161 °C.
